For orientation: half-life means how long it takes for the measured level to halve. Broadly, the IC50 is the concentration at which inhibition is half-maximal.

The values that follow come from ChEMBL document CHEMBL5528043, “Development of Potent Mcl-1 Inhibitors: Structural Investigations on Macrocycles Originating from a DNA-Encoded Chemical Library Screen” (J Med Chem, 2024).

The nature of data set [1]: Metabolic stability in human liver S9 fraction assessed as half life. The class given is ADME, subcellular. The following applies: liver S9 fraction.
Data set [2] is described as follows: Metabolic stability in rat liver S9 fraction assessed as half life. The format is ADME, subcellular.
Data set [3] is described as follows: Metabolic stability in mouse liver S9 fraction assessed as intrinsic clearance. The format is ADME, subcellular. The following applies: read-out: CLH.
Data set [4] can be described thus: Metabolic stability in human liver S9 fraction assessed as intrinsic clearance. The following applies: liver S9 fraction, read-out: CLH. The class given is ADME, subcellular.
Data set [5] concerns NCI-H929. The experiment in a line: Cytotoxicity against human NCI-H929 cells assessed as cell viability measured after 72 hrs incubation by CellTiterGlo assay. The following applies: NCI-H929, 72 h. The class given is functional, cell-based.
Data set [6] can be described thus: Metabolic stability in rat liver S9 fraction assessed as intrinsic clearance. The format is ADME, subcellular. The conditions noted are these: read-out: CLH.
The nature of data set [7]: Metabolic stability in mouse liver S9 fraction assessed as half life. The format is ADME, subcellular.
Data set [8] can be described thus: Kinetic solubility of the compound in pH 7.4 buffer measured after 24 hrs by LC-UV analysis. The class given is physicochemical. The following applies: read-out: Kinetic_solubility.
For data set [9], the target named is Bcl-2-like protein 1 (Homo sapiens, UniProt Q07817). The experiment in a line: Inhibition of Bcl-xl (1-212) (unknown origin) using BIOTIN-AHXAHXGQVGRQLAIIGDDINR-amide peptide by TR-FRET based BAK peptide displacement assay.
Data set [10] deals with Induced myeloid leukemia cell differentiation protein Mcl-1 (Homo sapiens, UniProt Q07820). The experiment in a line: Inhibition of Mcl-1 (172-327) (unknown origin) using BIOTIN-AHXGQVGRQLAIIGDDINR-amide peptide by TR-FRET based BAK peptide displacement assay. (TR-FRET usually uses a lanthanide donor and a delayed reading to cut background.)
Chain of Induced myeloid leukemia cell differentiation protein Mcl-1 (Q07820 whole entry): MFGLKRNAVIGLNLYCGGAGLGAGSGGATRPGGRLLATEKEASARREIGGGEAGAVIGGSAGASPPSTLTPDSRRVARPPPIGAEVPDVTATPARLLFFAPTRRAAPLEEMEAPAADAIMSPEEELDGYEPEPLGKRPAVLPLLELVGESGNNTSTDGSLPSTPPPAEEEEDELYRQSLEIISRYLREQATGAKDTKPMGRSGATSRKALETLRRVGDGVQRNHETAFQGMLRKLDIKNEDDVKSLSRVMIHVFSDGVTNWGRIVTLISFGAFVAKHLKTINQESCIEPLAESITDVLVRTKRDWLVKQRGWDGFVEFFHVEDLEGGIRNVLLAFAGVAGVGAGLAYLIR

Chain of Bcl-2-like protein 1 (Q07817 whole entry): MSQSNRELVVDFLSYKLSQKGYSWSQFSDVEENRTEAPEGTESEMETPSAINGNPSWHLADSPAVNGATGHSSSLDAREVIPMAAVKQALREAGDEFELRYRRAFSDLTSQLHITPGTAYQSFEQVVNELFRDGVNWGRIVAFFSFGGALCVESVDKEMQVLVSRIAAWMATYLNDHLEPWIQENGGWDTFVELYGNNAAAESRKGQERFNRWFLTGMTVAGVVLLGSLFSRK

Turning to `CCOc1cccc2c1OCC(=O)N[C@H]1CC[C@H](CC1)CC(=O)N[C@@H](c1ccccc1)C(=O)N[C@H](Cc1ccccc1)C(=O)NCCc1ccc(cc1)OC2`, the values for the half-life in [1], in data set [2] and in data set [7] were 8 min, 23 min and 17 min, respectively. The microsomal CLint in [3] came to 41 µL/min/mg; in data set [4] it was 82 µL/min/mg; in data set [6] it was 30 µL/min/mg. Besides, the IC50 in data set [5] was greater than 10000 nM; in [9] it was greater than 10000 nM; in [10] it was 130 nM. In addition, the solubility kinetic at 24 h in data set [8] is less than 2 µM.

In the case of `CCOc1cccc2c1OCC(=O)N[C@H]1CC[C@H](CC1)CC(=O)N[C@@H](c1ccccc1)C(=O)N[C@H](Cc1ccccc1)C(=O)N[C@H](C(=O)NC)Cc1ccc(cc1)OC2`, the half-life was found to be 37 min in data set [1], 47 min in data set [2] and 19 min in [7]. Further, the results for the microsomal CLint in [3], in data set [4] and in [6] were 36 µL/min/mg, 19 µL/min/mg and 15 µL/min/mg, respectively. Further, the solubility kinetic at 24 h in data set [8] was less than 2 µM. Besides, the results for the IC50 in data set [9] and in data set [10] were greater than 10000 nM and 50 nM, respectively.
